Results taken from patent US20260231940A1, “METHOD FOR ATTRACTING COCKROACHES, COCKROACH ATTRACTANT, AND METHOD FOR CONTROLLING COCKROACHES” (SUMITOMO CHEMICAL COMPANY, LIMITED, priority 2023, published 2026).

Columns and labels:
Assay type in all cases: in vivo
Blattella germanica [1] = assay: Test Example 3: choice test, bistrifluron-applied filter paper uneven sheet; conditions: 1 g bistrifluron per 1 m^2, four hours after release, total of four repetitions
Excerpt: (§1) FIG. 3 is a planar view schematically illustrating the test space used in Test Examples 1 to 5. […] Depending on the test system, a container 2 containing solid feed for MF mouse rats as bait and a container 3 containing water were placed between these two uneven sheets 1.
(§2) A sheet formed from a filter paper (ADVANTEC qualitative filter paper No. 2, manufactured by Toyo Roshi Kaisha, Ltd.) wherein the sheet was a triangular wave shape in its cross-sectional shape as shown in FIG. 2(b) was used. Specifically, an uneven sheet (a corrugated sheet) the depth of the concave portion and the height of the convex portion of which were each 17 mm, and where the concave portions and the convex portions were formed in a corrugated shape so that the angle at the vertices of the concave portions might be 60° was prepared.
(§3) As the uneven sheets 1 placed in the test space 20, all those being 10 cm×16 cm in size were used, and they were placed so that the ridge lines of the corrugations of the uneven sheets 1 were parallel to the lengthwise direction of the test space 20. […]
(§4) In the test space 20 prepared as described above, Blattella germanica (30 individuals in total) were released, and four hours later, the number of individuals settled in each uneven sheet 1 and the number of individuals present in the test space 20 other than the uneven sheets 1 were counted. […]

Blattella germanica [2] = assay: Test Example 5: choice test, hydroprene-applied filter paper uneven sheet; conditions: 500 mg hydroprene per 1 m^2, 24 hours after release, total of eight repetitions
Excerpt: as §1, §2, §3
In the test space 20 prepared as described above, Blattella germanica (30 individuals in total) were released, and 24 hours later, the number of individuals settled in each uneven sheet 1 and the number of individuals present in the test space 20 other than the uneven sheets 1 were counted. […]

Cimex lectularius = assay: Test Example 1: choice test, chemical-applied versus blank uneven sheet; conditions: 1 g pyriproxyfen per 1 m^2, four days after release, total of two repetitions
Protocol: (§5) Specifically, an uneven sheet (a corrugated sheet) the depth of the concave portion and the height of the convex portion of which were each 10 mm, and where the concave portions and the convex portions were formed in a corrugated shape so that the angle at the vertices of the concave portion might be 53° was prepared. The uneven sheet was used in Test Example 1 and Test Example 2.
as §1
(§6) As the uneven sheets 1 placed in the test space 20, all those being 10 cm×10 cm in size were used, and they were placed so that the ridge lines of the corrugations of the uneven sheets 1 were parallel to the lengthwise direction of the test space 20.
(§7) As test insects, Periplaneta americana nymphs, Cimex lectularius, Dermanyssus gallinae, Sitophilus zeamais, and Plodia interpunctella larvae were used. Cimex lectularius and Dermanyssus gallinae were released into each test space 20 where feed and water had not been placed and only corrugated sheets 1 had been placed. Periplaneta americana nymphs were released into test space 20 where containers 2 and 3 containing feed and water respectively placed between the facing uneven sheets 1 as shown in FIG. 3. Sitophilus zeamais and Plodia interpunctella larvae were released into each test space 20 where feed and water had not been placed and brown rice had been placed on uneven sheets 1 as a hiding place for the test insects.
(§8) Four days after releasing the insects, the number of individuals settled in each uneven sheet 1 and the number of individuals present in the test space 20 other than the uneven sheets 1 were counted. The above test was conducted in two repetitions.

Dermanyssus gallinae = assay: as above; conditions: 1 g pyriproxyfen per 1 m^2, four days after release, total of two repetitions
Protocol: as §5, §1, §6, §7, §8

[3] = test system: Periplaneta americana nymphs; assay: as above
Protocol: as §5, §1, §6, §7, §8

[4] = test system: Plodia interpunctella larvae; assay: as above; conditions: 1 g pyriproxyfen per 1 m^2, four days after release, total of two repetitions
Protocol: as §5, §1, §6, §7, §8

Sitophilus zeamais = assay: as above; conditions: 1 g pyriproxyfen per 1 m^2, four days after release, total of two repetitions
Protocol: as §5, §1, §6, §7, §8

Blattella germanica [5] = assay: Test Example 2: choice test, pyriproxyfen amount series on uneven sheet; conditions: four hours after release, total of four repetitions; for Number of individuals Uneven sheet (chemical applied): 120 released
Protocol: as §5, §1
As the uneven sheets 1 placed in the test space 20, all those being 10 cm×16 cm in size were used, and they were placed so that the ridge lines of the corrugations of the uneven sheets 1 were parallel to the lengthwise direction of the test space 20. Additionally, containers 2 and 3 containing feed and water respectively were placed between the facing uneven sheets 1.
In the test space 20 prepared as described above, Blattella germanica (30 individuals in total) were released, and four hours later, the number of individuals settled in each uneven sheet 1 and the number of individuals present in the test space 20 other than the uneven sheets 1 were counted. The above test was conducted in four repetitions.

Blattella germanica [6] = assay: Test Example 4: choice test, methoprene-applied filter paper uneven sheet; conditions: 1 g methoprene per 1 m^2, four hours after release, total of eight repetitions
Excerpt: as §1, §2, §3, §4

[7] = 60 released, brown rice on sheets

## O=C(NC(=O)c1c(F)cccc1F)Nc1cc(C(F)(F)F)cc(C(F)(F)F)c1Cl [bistrifluron]
Blattella germanica [1]; 120 released
  Number of individuals Uneven sheet (chemical applied): 71
Blattella germanica [1]
  Hiding rate (Chemical applied / Blank): 2.29

## CCOC(=O)/C=C(C)/C=C/CC(C)CCCC(C)C (centres unmarked) [hydroprene]
Blattella germanica [2]; 240 released
  Number of individuals Uneven sheet (chemical applied): 160
Blattella germanica [2]
  Hiding rate (Chemical applied / Blank): 2.13

## CC(COc1ccc(Oc2ccccc2)cc1)Oc1ccccn1 (centres unmarked) [pyriproxyfen]
Cimex lectularius; 30 released, no feed or water
  Number of individuals Uneven sheet (chemical applied): 12
Cimex lectularius
  Hiding rate (Chemical applied / Blank): 0.75
Dermanyssus gallinae; 59 released, no feed or water
  Number of individuals Uneven sheet (chemical applied): 17
Dermanyssus gallinae
  Hiding rate (Chemical applied / Blank): 0.94
[3]; Periplaneta americana nymphs, 1 g pyriproxyfen per 1 m^2, four days after release, 60 released, total of two repetitions, feed and water placed
  Number of individuals Uneven sheet (chemical applied): 39
[3]; Periplaneta americana nymphs, 1 g pyriproxyfen per 1 m^2, four days after release, total of two repetitions
  Hiding rate (Chemical applied / Blank): 1.86
[3]; conclusion from Table 1: Periplaneta americana nymphs versus the four other test species
  attracting effect: specific to cockroaches
[4]; [7]
  Number of individuals Uneven sheet (chemical applied): 23
[4]
  Hiding rate (Chemical applied / Blank): 0.62
Sitophilus zeamais; [7]
  Number of individuals Uneven sheet (chemical applied): 21
Sitophilus zeamais
  Hiding rate (Chemical applied / Blank): 0.64
Blattella germanica [5]; 10 mg/m^2 pyriproxyfen
  Number of individuals Uneven sheet (chemical applied): 78
  Hiding rate (Chemical applied / Blank): 1.95
Blattella germanica [5]; 100 mg/m^2 pyriproxyfen
  Number of individuals Uneven sheet (chemical applied): 70
  Hiding rate (Chemical applied / Blank): 1.52
Blattella germanica [5]; 500 mg/m^2 pyriproxyfen
  Number of individuals Uneven sheet (chemical applied): 98
  Hiding rate (Chemical applied / Blank): 5.44
Blattella germanica [5]; 1000 mg/m^2 pyriproxyfen
  Number of individuals Uneven sheet (chemical applied): 91
  Hiding rate (Chemical applied / Blank): 3.25
Blattella germanica [5]; 2000 mg/m^2 pyriproxyfen
  Number of individuals Uneven sheet (chemical applied): 67
  Hiding rate (Chemical applied / Blank): 1.40
Blattella germanica [5]; 5000 mg/m^2 pyriproxyfen
  Number of individuals Uneven sheet (chemical applied): 71
  Hiding rate (Chemical applied / Blank): 1.54

## COC(C)(C)CCC[C@H](C)C/C=C/C(C)=C/C(=O)OC(C)C (racemic) [methoprene]
Blattella germanica [6]; 240 released
  Number of individuals Uneven sheet (chemical applied): 152
Blattella germanica [6]
  Hiding rate (Chemical applied / Blank): 2.92
